From US6642392B1 (priority 1997, dated 2003)
Where two headings read alike, the source gives them in different places.

Columns and labels:
Assay type in all cases: in vivo
[1] = system: Pyricularia oryzae; settings: for Test C disease control rating: rice blast; for Test C disease control rating (100 = 100% disease control, 0 = no disease control): rating relative to controls
[2] = system: Puccinia recondita; assay: Test B: wheat leaf rust, preventive spray on wheat seedlings; settings: for Test B disease control rating: wheat leaf rust; for Test B disease control rating (100 = 100% disease control, 0 = no disease control): rating relative to controls
Outline: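 Wheat seedlings were sprayed to run-off with compound (3% acetone, 250 ppm Trem 014), then inoculated with P. recondita spores the next day. They were held 24 h saturated at 20 °C, then 6 days at 20 °C. Ratings are 0–100% disease control versus controls.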

[3] = system: Eiysiphe graminis f. sp. tritici; assay: Test A: wheat powdery mildew, preventive spray on wheat seedlings; settings: for Test A disease control rating: wheat powdery mildew; for Test A disease control rating (100 = 100% disease control, 0 = no disease control): rating relative to controls
Outline: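 Compounds (3% acetone, 250 ppm Trem 014) sprayed to run-off on wheat seedlings, inoculated next day with spore dust. Incubated 7 days at 20° C before disease rating, 0–100% control relative to untreated controls.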

[4] = system: Phytophthora infestans; settings: for Test D disease control rating: tomato late blight; for Test D disease control rating (100 = 100% disease control, 0 = no disease control): rating relative to controls
[5] = system: Botrytis cinerea; assay: Test E: gray mold, preventive spray on cucumber seedlings; settings: for Test E disease control rating: gray mold on cucumber; for Test E disease control rating (100 = 100% disease control, 0 = no disease control): rating relative to controls
Outline: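 Compounds in 3% acetone were suspended with 250 ppm Trem 014 surfactant and sprayed to run-off on cucumber seedlings. B. cinerea spores were inoculated next day, then 48 h saturated humidity at 20° C and 5 days at 20° C. Disease control rated 0–100% versus controls.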

[6] = 100 = 100% disease control, 0 = no control, unmarked entries (standard test concentration)
[7] = 100 = 100% disease control, 0 = no control relative to controls, unmarked entries (standard test concentration)
[8] = rice seedlings sprayed to run-off, inoculated the following day, unmarked compounds (standard test rate)
[9] = wheat seedlings sprayed to run-off, inoculated the following day, unmarked compounds (standard test rate)
[10] = tomato seedlings sprayed to run-off, inoculated the following day, unmarked compounds (standard test rate)
[11] = cucumber seedlings sprayed to run-off, inoculated the following day, unmarked compounds (standard test rate)
[12] = tested at 40 ppm, wheat seedlings

SMILES	Test C disease control rating [1, 6] [%]	Test B disease control rating [2, 6] [%]	Test A disease control rating [3, 7] [%]	Test D disease control rating [4, 6] [%]	Test E disease control rating [5, 6] [%]	other results
CC(COc1cccc(I)c1C#N)NC(=O)C(C#N)C(C)C(C)(C)C (mixture of isomers) [compound 65]	0	0	0	2	0	
CCC1(C(=O)NCC=Cc2ccc(F)cc2F)C(C)C1(Cl)Cl (centres unmarked) [compound 162]	74	0	0	95	82	
CC(COc1ccc(F)cc1)NC(=O)C(C#N)C(C)(C)C (single isomer, unassigned) [4a]	99	67	0	66	0	
CCCC(C#N)C(=O)NC(C)C(Oc1cc(F)ccc1C#N)c1ccccc1 (mixture of isomers) [compound 287]						Test C disease control rating (100 = 100% disease control, 0 = no disease control) [1, 8]: 97%; Test B disease control rating (100 = 100% disease control, 0 = no disease control) [2, 9]: 0%; Test A disease control rating (100 = 100% disease control, 0 = no disease control) [3, 9]: 0%; Test D disease control rating (100 = 100% disease control, 0 = no disease control) [4, 10]: 23%; Test E disease control rating (100 = 100% disease control, 0 = no disease control) [5, 11]: 0%
CCC1(C(=O)NC(C)COc2cc(Cl)ccc2C#N)C(C)C1(Cl)Cl (centres unmarked) [compound 239]						Test C disease control rating (100 = 100% disease control, 0 = no disease control) [1, 8]: 97%; Test B disease control rating (100 = 100% disease control, 0 = no disease control) [2, 9]: 0%; Test A disease control rating (100 = 100% disease control, 0 = no disease control) [3, 9]: 0%; Test D disease control rating (100 = 100% disease control, 0 = no disease control) [4, 10]: 88%; Test E disease control rating (100 = 100% disease control, 0 = no disease control) [5, 11]: 0%
CC(COc1cc(Cl)ccc1C#N)NC(=O)C(C#N)C(C)(C)C (mixture of isomers) [compound 43]	86	0	0	66	0	
CCC1(C(=O)NC(C)COc2ccccc2SC(F)(F)C(F)F)C(C)C1(Cl)Cl (mixture of isomers) [compound 91]	53	0	74	0	0	
CC(C)(C)C(C#N)C(=O)NCCCn1c(C#N)cc(Cl)c1Cl (racemic) [compound 55]	85	0	0	0	0	
CCC1(C(=O)NC(C)COc2cc(F)ccc2F)C(C)C1(Cl)Cl (centres unmarked) [compound 107]						Test C disease control rating ([1]; tested at 40 ppm): 100%; Test B disease control rating ([2]; tested at 40 ppm): 0%; Test A disease control rating ([3]; tested at 40 ppm): 71%; Test D disease control rating ([4]; tested at 40 ppm): 0%; Test E disease control rating ([5]; tested at 40 ppm): 0%
CCC1(C(=O)NCC=C(C)c2ccccc2)C(C)C1(Cl)Cl (centres unmarked) [compound 268]						Test C disease control rating (100 = 100% disease control, 0 = no disease control) [1, 8]: 91%; Test B disease control rating (100 = 100% disease control, 0 = no disease control) [2, 9]: 0%; Test A disease control rating (100 = 100% disease control, 0 = no disease control) [3, 9]: 38%; Test D disease control rating (100 = 100% disease control, 0 = no disease control) [4, 10]: 88%; Test E disease control rating (100 = 100% disease control, 0 = no disease control) [5, 11]: 0%
C=CC(C)(C)C(C#N)C(=O)NC(C)COc1cc(F)ccc1OC(F)F (mixture of isomers) [compound 294]						Test C disease control rating (100 = 100% disease control, 0 = no disease control) [1, 8]: 99%; Test B disease control rating (100 = 100% disease control, 0 = no disease control) [2, 9]: 0%; Test A disease control rating (100 = 100% disease control, 0 = no disease control) [3, 9]: 0%; Test D disease control rating (100 = 100% disease control, 0 = no disease control) [4, 10]: 24%; Test E disease control rating (100 = 100% disease control, 0 = no disease control) [5, 11]: 0%
CCC1(C(=O)NC(C)COc2ccccc2I)C(C)C1(Cl)Cl (mixture of isomers) [87a]						Test C disease control rating ([1]; tested at 40 ppm): 74%; Test B disease control rating ([2]; tested at 40 ppm): 0%; Test A disease control rating ([3]; tested at 40 ppm): 0%; Test D disease control rating ([4]; tested at 40 ppm): 0%; Test E disease control rating ([5]; tested at 40 ppm): 0%
CCC1(C(=O)NC(C)COc2cc(F)cc(F)c2Cl)C(C)C1(Cl)Cl (centres unmarked) [compound 318]						Test C disease control rating (100 = 100% disease control, 0 = no disease control) ([1]; tested at 40 ppm, rice seedlings): 53%; Test B disease control rating (100 = 100% disease control, 0 = no disease control) [2, 12]: 0%; Test A disease control rating (100 = 100% disease control, 0 = no disease control) [3, 12]: 90%; Test D disease control rating (100 = 100% disease control, 0 = no disease control) ([4]; tested at 40 ppm, tomato seedlings): 0%; Test E disease control rating (100 = 100% disease control, 0 = no disease control) ([5]; tested at 40 ppm, cucumber seedlings): 0%
Cc1c(Cl)cc(C#N)n1CCC(C)NC(=O)C(C#N)C(C)C(C)(C)C (mixture of isomers) [compound 72]	91	0	0	0	0	
C=CC(C)(CC)C(C#N)C(=O)NC(C)COc1cc(Cl)ccc1F (mixture of isomers) [compound 297]						Test C disease control rating (100 = 100% disease control, 0 = no disease control) [1, 8]: 100%; Test B disease control rating (100 = 100% disease control, 0 = no disease control) [2, 9]: 0%; Test A disease control rating (100 = 100% disease control, 0 = no disease control) [3, 9]: 0%; Test D disease control rating (100 = 100% disease control, 0 = no disease control) [4, 10]: 46%; Test E disease control rating (100 = 100% disease control, 0 = no disease control) [5, 11]: 0%
Cc1ccc(OC[C@@H](C)NC(=O)C(C#N)C(C)(C)C)c(Cl)c1 (single isomer, unassigned) [14b]	86	0	61	23	0	
Cc1cccc(C#N)c1OCC(C)NC(=O)C(C#N)C(C)(C)C (mixture of isomers) [compound 209]	86	0	0	0	0	
C=CCc1cccc(C#N)c1OCC(C)NC(=O)C1(CC)C(C)C1(Cl)Cl (mixture of isomers) [compound 254]						Test C disease control rating (100 = 100% disease control, 0 = no disease control) [1, 8]: 53%; Test B disease control rating (100 = 100% disease control, 0 = no disease control) [2, 9]: 0%; Test A disease control rating (100 = 100% disease control, 0 = no disease control) [3, 9]: 0%; Test D disease control rating (100 = 100% disease control, 0 = no disease control) [4, 10]: 0%; Test E disease control rating (100 = 100% disease control, 0 = no disease control) [5, 11]: 0%
CC(COc1c(F)ccc(F)c1C#N)NC(=O)C(C#N)C(C)(C)C (mixture of isomers) [compound 208]	94	28	0	45	0	
CC(COc1cccc(C(F)(F)F)c1C#N)NC(=O)C(C#N)C(C)(C)C (mixture of isomers) [compound 47]	53	0	0	52	0	
CC(COc1cccc(F)c1)NC(=O)C(C#N)C(C)(C)C (single isomer, unassigned) [3b]	86	0	0	32	0	
CCCc1ccccc1OCC(C)NC(=O)C(C#N)C(C)(C)C (mixture of isomers) [21a]	99	68	38	4	0	
